PMC10043345, “Discovery of BAR502, as potent steroidal antagonist of leukemia inhibitory factor receptor for the treatment of pancreatic adenocarcinoma” (Frontiers in Oncology, 2023)

Assays:
Type in all cases: cell-based, human
MIA PaCa-2 cells [1] = test: Ki-67/7-AAD IC-FACS cell cycle analysis
Procedure: (§1) MIA-PaCa2 cells were seeded in 6-well tissue culture plate (cell density 700 × 10^3/well) and cultured as specified above. Cells were serum-starved for 8 h and then incubated with LIF (10 ng/mL) alone or plus BAR502 (10, 20 µM) or a vehicle for 24 h. The intracellular flow cytometry staining for Ki-67 was performed using the following reagents: Ki-67 Monoclonal Antibody (SolA15), Alexa Fluor™ 488, (eBioscience™, San Diego, California, USA) and 7-AAD to characterize the cell cycle phases G0-G1 and S-G2-M. Before intracellular IC-FACS, staining cells were fixed for 30 min in the dark using IC Fixation buffer (eBioscience™) and then permeabilized using Permeabilization buffer (10X) (eBioscience™). The staining for Annexin V was performed using the Annexin V Antibody (A13199, Thermofisher Scientific, Waltham, MA, USA) to evaluate the apoptosis rate. Briefly, 5 μL of Annexin V Antibody was added to each 100 μL of cell suspension, and cells were incubated the at room temperature for 15 min. Flow cytometry analyses were carried out using a 3-laser standard configuration ATTUNE NxT (LIFe Technologies, Carlsbad, CA, USA). Data were analyzed using FlowJo software (TreeStar) and the gates set using a fluorescence minus-one (FMO) control strategy. […] The channel in which the conjugated Ab is missing is the one for which the fluorescence minus one provides a gating control.

MIA PaCa-2 cells [2] = test: Annexin V flow cytometry (apoptosis); details: BAR502 10-20 µM + LIF 10 ng/mL; p<0.05
Procedure: as §1

MIA PaCa-2 cells [3] = test: AmpliSeq transcriptome (RNAseq) analysis; details: LIF 10 ng/mL + BAR502 10 µM versus LIF, 24 h
Procedure: MIA PaCa-2 cells were cultured in 6-well tissue culture plate (cell density 1.5 * 10^6/well) in DMEM complete medium. After serum starving, cells were exposed with LIF (10 ng/mL) alone or plus BAR502 (10 µM) or left untreated for 24h. High-quality RNA was extracted from MIA PaCa-2 cells using the PureLink™ RNA Mini Kit (Thermo Fisher Scientific), according to the manufacturer’s instructions. RNA quality and quantity were assessed with the Qubit® RNA HS Assay Kit and a Qubit 3.0 fluorometer followed by agarose gel electrophoresis. Libraries were generated using the Ion AmpliSeq™ Transcriptome Human Gene Expression Core Panel and Chef-Ready Kit (Thermo Fisher Scientific), according to the manufacturer’s instructions. Briefly, 10 ng of RNA was reverse transcribed with SuperScript™ Vilo™ cDNA Synthesis Kit (Thermo Fisher Scientific, Waltham, MA) before library preparation on the Ion Chef™ instrument (Thermo Fisher Scientific, Waltham, MA). The resulting cDNA was amplified to prepare barcoded libraries using the Ion Code™ PCR Plate, and the Ion AmpliSeq™ Transcriptome Human Gene Expression Core Panel (Thermo Fisher Scientific, Waltham, MA), Chef-Ready Kit, according to the manufacturer’s instructions. Barcoded libraries were combined to a final concentration of 100 pM, and used to prepare Template-Positive Ion Sphere™ (Thermo Fisher Scientific, Waltham, MA) Particles to load on Ion 540™ Chips, using the Ion 540™ Kit-Chef (Thermo Fisher Scientific, Waltham, MA). Sequencing was performed on an Ion S5™ Sequencer with Torrent Suite™ Software v6 (Thermo Fisher Scientific). The analyses were performed with a range of fold <−2 and >+2 and a p value < 0.05, using Transcriptome Analysis Console Software (version 4.0.2), certified for AmpliSeq analysis (Thermo-Fisher). The transcriptomic data have been deposited as dataset on Mendeley data repository […].

SMILES: CC[C@H]1[C@@H](O)C2C3CC[C@H]([C@H](C)CCO)[C@@]3(C)CCC2[C@@]2(C)CC[C@@H](O)C[C@@H]12 (stereo partly shown) [BAR502]
- effect on LIF-increased S-G2-M transition (MIA PaCa-2 cells [1]; BAR502 10-20 μM + LIF 10 ng/mL): significantly reversed
- effect on LIF-induced increase of Ki-67 positive cells (MIA PaCa-2 cells [1]; LIF 10 ng/mL + BAR502): reversed
- effect on percentage of Annexin V+ cells (MIA PaCa-2 cells [2]): increased the percentage of Annexin V^+ cells
- CCND2 expression Fold Change (FC) (MIA PaCa-2 cells [3]): 16,13
- KIF20A expression Fold Change (FC) (MIA PaCa-2 cells [3]): -17,49
- RRM2 expression Fold Change (FC) (MIA PaCa-2 cells [3]): -14,34
- SESN2 expression Fold Change (FC) (MIA PaCa-2 cells [3]): 15,84
- SLC7A11 expression Fold Change (FC) (MIA PaCa-2 cells [3]): 35,54
- TNFRSF1B (TNFR2) expression Fold Change (FC) (MIA PaCa-2 cells [3]): -11,72
- TOP2A expression Fold Change (FC) (MIA PaCa-2 cells [3]): -9,61
